Measurements from ChEMBL document CHEMBL4513155, “CO-ADD screening of University of Sydney (Australia) compounds” (2021).
Converted amounts (≈) assume the structure as drawn.

Key:
Pseudomonas aeruginosa = test: microbe, parasite or virus in culture; conditions: ATCC 27853, 18 h, ASSAY_TEST Inhibition of Bacterial Growth, detection method Absorption (OD600), MEDIA CAMHB, plate type 384well, NBS, CORNING #3640
Description: Antibacterial activity against Pseudomonas aeruginosa ATCC 27853 (CO-ADD:GN_042); MIC in CAMBH media using NBS plates, by OD(600)

Klebsiella pneumoniae = test: microbe, parasite or virus in culture; conditions: ATCC 700603, 18 h, ASSAY_TEST Inhibition of Bacterial Growth, detection method Absorption (OD600), MEDIA CAMHB, plate type 384well, NBS, CORNING #3640
Description: Antibacterial activity against Klebsiella pneumoniae MDR ATCC 70063 (CO-ADD:GN_003); MIC in CAMBH media using NBS plates, by OD(600)

HEK293 = test: cells; format: functional; conditions: Homo sapiens, ATCC CRL1573, HEK293; ASSAY_TEST Inhibition of Cell Viability; detection method Resazurin; Fluorescence (ex560/em590); MEDIA DMEM with 10% FBS; plate type 384well; TC; CORNING #3712; time 18 hr
Candida albicans = test: microbe, parasite or virus in culture; conditions: ATCC 90028, ASSAY_TEST Inhibition of Fungal Growth, detection method Absorption (OD530), plate type 384well, NBS, CORNING #3640
Description: Antifungal activity against Candida albicans ATCC 90028 (CO-ADD:FG_001); MIC in YNB media using NBS plates, by OD630

Escherichia coli = test: microbe, parasite or virus in culture; conditions: ATCC 25922, 18 h, ASSAY_TEST Inhibition of Bacterial Growth, detection method Absorption (OD600), MEDIA CAMHB, plate type 384well, NBS, CORNING #3640
Description: Antibacterial activity against Escherichia coli ATCC 25922 (CO-ADD:GN_001); MIC in CAMBH media using NBS plates, by OD(600)

Staphylococcus aureus = test: microbe, parasite or virus in culture; conditions: ATCC 43300, 18 h, ASSAY_TEST Inhibition of Bacterial Growth, detection method Absorption (OD600), MEDIA CAMHB, plate type 384well, NBS, CORNING #3640
Description: Antibacterial activity against Staphylococcus aureus MRSA ATCC 43300 (CO-ADD:GP_020); MIC in CAMBH media, using NBS plates, by OD(600)

Acinetobacter baumannii = test: microbe, parasite or virus in culture; conditions: ATCC 19606, 18 h, ASSAY_TEST Inhibition of Bacterial Growth, detection method Absorption (OD600), MEDIA CAMHB, plate type 384well, NBS, CORNING #3640
Description: Antibacterial activity against Acinetobacter baumannii ATCC 19606 (CO-ADD:GN_034); MIC in CAMBH media using NBS plates, by OD600

Description for Cryptococcus neoformans: Antifungal activity against Cryptococcus neoformans H99 ATCC 208821 (CO-ADD:FG_002); MIC in YNB media using NBS plates, by Resazurin OD(600-570)

SMILES	MIC (Pseudomonas aeruginosa) [µg/mL]	MIC (Klebsiella pneumoniae) [µg/mL]	MIC (Cryptococcus neoformans) [µg/mL]	CC50 (HEK293) [µg/mL]	MIC (Candida albicans) [µg/mL]	MIC (Escherichia coli) [µg/mL]	MIC (Staphylococcus aureus) [µg/mL]	MIC (Acinetobacter baumannii) [µg/mL]
Clc1ccc(-c2nnc3cncc(OCCc4ccccc4)n23)cc1	> 32	> 32	> 32	21.7 (≈ 61.9 µM)	0.5 (≈ 1.43 µM)	> 32	> 32	> 32
[O-][Cl+3]([O-])([O-])O.[O-][Cl+3]([O-])([O-])O.[Zn].c1ccc2c(-n3cc(CN4CCCNCCN(Cc5cn(-c6cccc7ccccc67)nn5)CCCNCC4)nn3)cccc2c1	> 32	> 32	4	4.89	> 32	> 32	4	> 32
CCN1C(=O)c2cccc3c(-c4c[n+](CCN5CCCNCCN(CC[n+]6cc(COc7ccc8c(c7)CC[C@@H]7[C@@H]8CC[C@]8(C)C(=O)CC[C@@H]78)[nH]n6)CCCNCC5)n[nH]4)ccc(c23)C1=O.[O-][Cl+3]([O-])([O-])O.[O-][Cl+3]([O-])([O-])O.[Zn+2]	> 32	> 32	32	> 32	> 32	> 32	16	> 32
